The target of the experiment is T1, recombinant human GR (Homo sapiens, UniProt P04150).
T1 construct: purchased Panvera/Invitrogen P2812 (kit P2893)
T1 sequence (P04150 1-777): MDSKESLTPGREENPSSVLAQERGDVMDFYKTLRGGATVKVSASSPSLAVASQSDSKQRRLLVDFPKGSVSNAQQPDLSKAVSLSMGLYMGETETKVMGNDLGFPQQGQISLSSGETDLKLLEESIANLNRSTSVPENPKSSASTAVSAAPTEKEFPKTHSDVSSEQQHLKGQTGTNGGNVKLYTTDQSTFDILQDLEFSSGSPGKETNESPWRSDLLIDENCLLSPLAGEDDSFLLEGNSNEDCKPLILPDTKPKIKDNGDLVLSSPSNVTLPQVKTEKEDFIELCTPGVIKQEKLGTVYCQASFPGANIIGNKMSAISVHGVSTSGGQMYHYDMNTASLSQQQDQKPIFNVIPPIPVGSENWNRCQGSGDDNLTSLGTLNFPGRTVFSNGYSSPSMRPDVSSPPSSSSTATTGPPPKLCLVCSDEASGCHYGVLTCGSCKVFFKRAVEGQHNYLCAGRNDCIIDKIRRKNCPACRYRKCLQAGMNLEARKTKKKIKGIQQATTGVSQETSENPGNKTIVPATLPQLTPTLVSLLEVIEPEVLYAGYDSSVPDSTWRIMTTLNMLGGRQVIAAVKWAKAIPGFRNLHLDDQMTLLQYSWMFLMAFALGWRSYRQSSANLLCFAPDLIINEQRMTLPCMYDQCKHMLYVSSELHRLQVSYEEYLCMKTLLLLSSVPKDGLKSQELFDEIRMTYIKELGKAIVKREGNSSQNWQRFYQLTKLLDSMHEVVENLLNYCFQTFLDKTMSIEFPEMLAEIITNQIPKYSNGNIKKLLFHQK
Kind of experiment: Human Glucocorticoid Receptor (GR) Assay, fluorescence polarization (GRhuFL_FP_v2). Format: binding. To be noted: GS Red tracer, 2 hours at room temperature, 100% control 10 μM Dexamethasone. As to the method: Human Glucocorticoid Receptor (GR) Assay
The assay is based on a commercial kit from Panvera/Invitrogen (Part number P2893). The assay technology is fluorescence polarization. […] The GR and Stabilizing Peptide reagents are stored at −70° C. while the GS Red is stored at −20° C. Also included in the kit are 1M DTT (Panvera, Part number P2325, stored at −20° C.) and GR Screening buffer 10× (Panvera, Part number P2814, stored at −70° C. initially but once thawed stored at room temperature). Avoid repeated freeze/thaws for all reagents. The GR Screening buffer 10× comprises 100 mM potassium phosphate, 200 mM sodium molybdate, 1 mM EDTA and 20% DMSO.
0% control was 100% DMSO and 100% control was 10 μM Dexamethasone. Background solution (8 μL; assay buffer 10×, Stabilizing Peptide, DTT and ice cold MQ water) was added to the background wells. GS Red solution (7 μL; assay buffer 10×, Stabilizing Peptide, DTT, GS Red and ice cold water) was added to all wells except background wells. GR solution (7 μL; assay buffer 10×, Stabilizing Peptide, DTT, GR and ice cold water) was added to all wells. The plate was sealed and incubated in a dark at room temperature for 2 hours.
In general terms: In fluorescence polarisation assays a small probe gives low polarisation when free and higher when bound to something large.
Take `O=S(=O)(NC[C@H](Sc1ccc2c(cnn2-c2ccc(F)cc2)c1)c1ccccc1)C1CC1` [Example 37, (R)—N-[2-[1-(4-fluorophenyl)indazol-5-yl]sulfanyl-2-phenyl-ethyl]cyclopropanesulfonamide]: the IC50 (in general, the concentration needed to halve the response being measured) came to 17 nM.
Then `C[C@H](NS(C)(=O)=O)[C@H](Sc1ccc2c(cnn2-c2ccc(F)cc2)c1)c1ccccc1` [Example 38, N-((1R,2S)-1-(1-(4-fluorophenyl)-1H-indazol-5-ylthio)-1-phenylpropan-2-yl)methanesulfonamide], with 4.8 nM; and `C[C@H](NS(C)(=O)=O)[C@@H](c1ccccc1)S(=O)(=O)c1ccc2c(cnn2-c2ccc(F)cc2)c1` [Example 39], with 280 nM; and `O=S(=O)(NC[C@H](Oc1ccc2c(cnn2-c2ccc(F)cc2)c1)c1ccccc1)C1CC1` [Example 40, N-[(2R)-2-[1-(4-fluorophenyl)indazol-5-yl]oxy-2-phenyl-ethyl]cyclopropanesulfonamide], with 13 nM.
As to `O=S(=O)(NC[C@@H](Oc1ccc2c(cnn2-c2ccc(F)cc2)c1)c1ccccc1)C1CC1` [Example 41, N-[(2S)-2-[1-(4-fluorophenyl)indazol-5-yl]oxy-2-phenyl-ethyl]cyclopropanesulfonamide], the IC50 turned out to be 250 nM.
Then `C[C@H](NS(=O)(=O)C1CC1)[C@H](Oc1ccc2c(cnn2-c2ccc(F)cc2)c1)c1cnc2ccccc2c1` [Example 42, N-((1R,2S)-1-(1-(4-fluorophenyl)-1H-indazol-5-yloxy)-1-(quinolin-3-yl)propan-2-yl)cyclopropanesulfonamide], with 3.6 nM; and `C[C@H](NS(=O)(=O)C1CC1)[C@H](Oc1ccc2c(cnn2-c2ccc(F)cc2)c1)c1ccc2c(c1)OCCO2` [Example 43, N-((1R,2S)-1-(2,3-dihydrobenzo[b][1,4]dioxin-6-yl)-1-(1-(4-fluorophenyl)-1H-indazol-5-yloxy)propan-2-yl)cyclopropanesulfonamide], with 2.3 nM.
